Drawing on ChEMBL document CHEMBL1152560, “Substituted 2-arylbenzothiazoles as kinase inhibitors: hit-to-lead optimization” (Bioorg Med Chem, 2009), this text covers residual activity for three molecules.

In test [1] the target is Protein kinase C eta type (Homo sapiens) (UniProt P24723). The test can be described thus: Residual activity of PKCeta at 10 uM by microplate scintillation counting.
Test [2] addresses T1, G protein-coupled receptor kinase 3 (Homo sapiens) (UniProt P35626).
T1 sequence (whole entry): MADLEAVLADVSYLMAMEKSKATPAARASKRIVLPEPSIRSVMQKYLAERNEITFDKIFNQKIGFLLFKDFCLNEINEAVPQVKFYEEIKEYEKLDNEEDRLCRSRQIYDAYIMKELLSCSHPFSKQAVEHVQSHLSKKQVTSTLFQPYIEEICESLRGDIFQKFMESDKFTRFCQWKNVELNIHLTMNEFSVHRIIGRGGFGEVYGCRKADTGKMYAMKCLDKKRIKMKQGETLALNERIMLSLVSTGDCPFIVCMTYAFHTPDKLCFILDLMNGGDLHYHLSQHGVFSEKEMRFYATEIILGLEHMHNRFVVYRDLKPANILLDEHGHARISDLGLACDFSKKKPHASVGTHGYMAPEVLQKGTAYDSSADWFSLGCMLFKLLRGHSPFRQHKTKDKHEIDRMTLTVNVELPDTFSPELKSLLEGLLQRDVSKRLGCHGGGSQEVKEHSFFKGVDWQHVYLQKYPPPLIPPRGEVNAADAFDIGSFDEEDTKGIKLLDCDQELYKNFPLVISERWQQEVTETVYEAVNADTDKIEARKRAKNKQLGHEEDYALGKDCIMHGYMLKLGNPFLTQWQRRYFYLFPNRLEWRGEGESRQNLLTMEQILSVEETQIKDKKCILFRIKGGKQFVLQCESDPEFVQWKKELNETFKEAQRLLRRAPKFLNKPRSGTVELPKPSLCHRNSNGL
Briefly: Residual activity of GRK3 at 1 uM by microplate scintillation counting.

Test [3] deals with CDK1/Cyclin E (Homo sapiens) (UniProt P06493+P24864). Briefly: Residual activity of CDK1/Cyclin E at 1 uM by microplate scintillation counting. The class given is protein-complex assay.
Sequence of CDK1/Cyclin E (Homo sapiens) (P06493 whole entry, looked up): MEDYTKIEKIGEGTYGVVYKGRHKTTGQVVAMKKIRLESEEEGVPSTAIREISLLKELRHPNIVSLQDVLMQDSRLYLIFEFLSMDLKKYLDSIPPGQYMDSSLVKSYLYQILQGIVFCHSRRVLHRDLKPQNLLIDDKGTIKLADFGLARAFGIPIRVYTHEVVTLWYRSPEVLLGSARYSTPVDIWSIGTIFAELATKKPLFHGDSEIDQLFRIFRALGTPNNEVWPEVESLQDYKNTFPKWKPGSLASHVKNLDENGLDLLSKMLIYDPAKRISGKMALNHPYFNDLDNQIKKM
Sequence of CDK1/Cyclin E (Homo sapiens) (P24864 whole entry, looked up): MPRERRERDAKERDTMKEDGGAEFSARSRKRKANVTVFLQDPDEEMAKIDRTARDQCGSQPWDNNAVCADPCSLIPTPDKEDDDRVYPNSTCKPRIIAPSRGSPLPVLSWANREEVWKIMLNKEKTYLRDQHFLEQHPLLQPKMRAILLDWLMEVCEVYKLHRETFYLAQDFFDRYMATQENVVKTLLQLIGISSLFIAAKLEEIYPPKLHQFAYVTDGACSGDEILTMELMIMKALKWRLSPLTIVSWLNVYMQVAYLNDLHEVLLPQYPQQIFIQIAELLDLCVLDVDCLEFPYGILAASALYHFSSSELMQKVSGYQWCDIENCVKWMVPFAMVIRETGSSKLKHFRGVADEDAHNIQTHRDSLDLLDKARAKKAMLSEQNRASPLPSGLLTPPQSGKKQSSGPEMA
Test [4] addresses T2, Dual specificity protein kinase TTK (Homo sapiens) (UniProt P33981).
T2 sequence (whole entry): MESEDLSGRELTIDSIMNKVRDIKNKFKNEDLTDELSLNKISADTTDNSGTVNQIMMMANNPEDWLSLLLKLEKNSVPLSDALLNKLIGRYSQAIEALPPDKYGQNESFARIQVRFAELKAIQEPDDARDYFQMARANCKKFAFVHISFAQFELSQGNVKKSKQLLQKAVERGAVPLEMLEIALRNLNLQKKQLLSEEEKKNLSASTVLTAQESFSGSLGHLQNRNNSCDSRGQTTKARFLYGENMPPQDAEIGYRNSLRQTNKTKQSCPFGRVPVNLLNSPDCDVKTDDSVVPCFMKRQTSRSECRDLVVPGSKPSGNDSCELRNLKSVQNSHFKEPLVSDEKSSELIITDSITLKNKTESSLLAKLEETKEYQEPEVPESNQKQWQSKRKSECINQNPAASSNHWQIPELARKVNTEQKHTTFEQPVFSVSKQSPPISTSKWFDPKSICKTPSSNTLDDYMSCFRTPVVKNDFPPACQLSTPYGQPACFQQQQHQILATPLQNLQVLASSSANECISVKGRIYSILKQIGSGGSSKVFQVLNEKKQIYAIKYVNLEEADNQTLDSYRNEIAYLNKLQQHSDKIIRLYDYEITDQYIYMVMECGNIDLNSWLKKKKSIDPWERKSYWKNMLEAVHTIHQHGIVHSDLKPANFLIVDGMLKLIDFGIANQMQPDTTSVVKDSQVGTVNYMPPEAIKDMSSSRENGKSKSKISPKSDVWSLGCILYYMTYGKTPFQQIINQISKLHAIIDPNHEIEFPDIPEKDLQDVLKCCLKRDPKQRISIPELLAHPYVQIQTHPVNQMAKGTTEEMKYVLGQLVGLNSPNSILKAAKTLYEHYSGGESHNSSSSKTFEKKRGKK
The test can be described thus: Residual activity of TTK at 1 uM by microplate scintillation counting.

For test [5], the target named is Serine/threonine-protein kinase Nek6 (Homo sapiens) (UniProt Q9HC98). Briefly: Residual activity of NEK6 at 10 uM by microplate scintillation counting.
Sequence of Serine/threonine-protein kinase Nek6 (Homo sapiens) (Q9HC98 whole entry): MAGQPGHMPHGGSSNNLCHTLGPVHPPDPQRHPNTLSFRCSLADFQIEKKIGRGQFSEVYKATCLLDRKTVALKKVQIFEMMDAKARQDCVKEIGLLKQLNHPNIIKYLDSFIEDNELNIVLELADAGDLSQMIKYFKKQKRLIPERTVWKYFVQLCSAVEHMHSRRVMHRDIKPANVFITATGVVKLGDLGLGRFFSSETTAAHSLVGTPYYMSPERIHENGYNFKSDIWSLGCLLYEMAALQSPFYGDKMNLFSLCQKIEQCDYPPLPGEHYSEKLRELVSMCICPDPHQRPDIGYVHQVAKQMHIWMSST
For test [6], the target named is Calcium/calmodulin-dependent protein kinase kinase 2 (Homo sapiens) (UniProt Q96RR4). The test can be described thus: Residual activity of CAMKK2 at 1 uM by microplate scintillation counting.
Sequence of Calcium/calmodulin-dependent protein kinase kinase 2 (Homo sapiens) (Q96RR4 2-588 limits assumed): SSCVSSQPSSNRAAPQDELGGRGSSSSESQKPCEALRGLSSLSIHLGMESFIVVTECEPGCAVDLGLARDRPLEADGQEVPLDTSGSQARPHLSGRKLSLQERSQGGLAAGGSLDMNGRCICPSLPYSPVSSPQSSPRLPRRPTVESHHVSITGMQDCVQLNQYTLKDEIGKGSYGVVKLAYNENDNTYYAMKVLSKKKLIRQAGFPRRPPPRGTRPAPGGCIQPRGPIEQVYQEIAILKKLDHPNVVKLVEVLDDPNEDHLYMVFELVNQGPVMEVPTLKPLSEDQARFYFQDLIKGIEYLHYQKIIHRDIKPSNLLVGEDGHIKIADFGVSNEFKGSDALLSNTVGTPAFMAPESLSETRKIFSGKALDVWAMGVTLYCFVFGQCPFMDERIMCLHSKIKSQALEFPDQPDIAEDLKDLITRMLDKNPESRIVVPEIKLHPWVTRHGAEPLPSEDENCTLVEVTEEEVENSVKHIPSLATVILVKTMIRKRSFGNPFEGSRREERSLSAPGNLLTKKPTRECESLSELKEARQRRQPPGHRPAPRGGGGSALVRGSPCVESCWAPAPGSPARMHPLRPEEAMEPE
Test [7] concerns Tyrosine-protein kinase ABL1 (Homo sapiens), P00519 [T315I]. Briefly: Residual activity of ABL1 T315I mutant at 1 uM by microplate scintillation counting.
In test [8] the target is Homeodomain-interacting protein kinase 3 (Homo sapiens) (UniProt Q9H422). Briefly: Residual activity of HIPK3 at 0.1 uM by microplate scintillation counting.
The test system of test [9] is Serine/threonine-protein kinase B-raf (Homo sapiens), P15056 [V600E]. The test can be described thus: Residual activity of B-RAF V600E mutant at 10 uM by microplate scintillation counting.
Sequence of Serine/threonine-protein kinase B-raf (Homo sapiens), P15056 [V600E] (P15056 whole entry V600E): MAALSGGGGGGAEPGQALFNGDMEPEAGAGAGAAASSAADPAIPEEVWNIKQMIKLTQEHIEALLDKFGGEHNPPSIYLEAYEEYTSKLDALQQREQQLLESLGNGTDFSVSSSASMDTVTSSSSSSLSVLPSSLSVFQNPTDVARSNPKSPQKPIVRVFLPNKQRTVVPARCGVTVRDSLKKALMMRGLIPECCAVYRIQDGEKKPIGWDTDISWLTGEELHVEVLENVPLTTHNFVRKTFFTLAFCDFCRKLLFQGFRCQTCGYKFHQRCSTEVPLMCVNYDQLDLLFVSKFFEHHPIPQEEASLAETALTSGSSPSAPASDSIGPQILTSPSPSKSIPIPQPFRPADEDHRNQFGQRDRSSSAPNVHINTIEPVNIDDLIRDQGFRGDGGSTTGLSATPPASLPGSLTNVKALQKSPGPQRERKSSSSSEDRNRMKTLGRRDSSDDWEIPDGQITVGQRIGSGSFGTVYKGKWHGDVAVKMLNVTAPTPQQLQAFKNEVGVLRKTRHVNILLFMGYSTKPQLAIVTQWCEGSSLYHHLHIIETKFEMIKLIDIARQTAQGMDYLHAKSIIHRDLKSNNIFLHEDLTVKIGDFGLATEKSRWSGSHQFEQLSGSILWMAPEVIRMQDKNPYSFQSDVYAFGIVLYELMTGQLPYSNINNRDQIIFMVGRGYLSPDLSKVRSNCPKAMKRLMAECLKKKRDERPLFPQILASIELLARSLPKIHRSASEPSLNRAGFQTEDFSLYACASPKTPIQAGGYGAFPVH
Test [10] has as its target ALK tyrosine kinase receptor (Homo sapiens) (UniProt Q9UM73). Briefly: Residual activity of ALK at 0.1 uM by microplate scintillation counting.
Test [11] addresses T3, Tyrosine-protein kinase ZAP-70 (Homo sapiens) (UniProt P43403).
T3 sequence (whole entry): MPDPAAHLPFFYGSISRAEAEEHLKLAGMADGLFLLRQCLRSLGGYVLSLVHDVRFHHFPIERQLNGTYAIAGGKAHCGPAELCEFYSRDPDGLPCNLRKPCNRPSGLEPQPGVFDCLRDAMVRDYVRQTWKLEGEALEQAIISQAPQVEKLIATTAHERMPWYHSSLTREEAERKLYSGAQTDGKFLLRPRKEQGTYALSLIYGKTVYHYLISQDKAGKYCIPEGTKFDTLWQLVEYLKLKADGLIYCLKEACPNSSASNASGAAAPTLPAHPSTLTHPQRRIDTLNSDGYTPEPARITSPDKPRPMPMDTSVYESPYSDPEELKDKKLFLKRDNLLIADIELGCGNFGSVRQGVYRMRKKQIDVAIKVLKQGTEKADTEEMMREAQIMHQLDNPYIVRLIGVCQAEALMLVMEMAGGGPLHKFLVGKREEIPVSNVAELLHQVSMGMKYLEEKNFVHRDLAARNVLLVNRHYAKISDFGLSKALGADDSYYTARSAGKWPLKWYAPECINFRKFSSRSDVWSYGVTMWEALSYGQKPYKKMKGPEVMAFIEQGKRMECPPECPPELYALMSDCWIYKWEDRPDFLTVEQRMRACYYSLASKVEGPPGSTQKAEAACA
The test can be described thus: Residual activity of ZAP70 at 10 uM by microplate scintillation counting.

Test [12] has as its target Calcium/calmodulin-dependent protein kinase type II subunit alpha (Homo sapiens) (UniProt Q9UQM7). Briefly: Residual activity of CAMK2A at 1 uM by microplate scintillation counting.
Test [13] has as its target Serine/threonine-protein kinase 16 (Homo sapiens) (UniProt O75716). Briefly: Residual activity of TSF1 at 0.1 uM by microplate scintillation counting.

Sequence of Calcium/calmodulin-dependent protein kinase type II subunit alpha (Homo sapiens) (Q9UQM7 whole entry): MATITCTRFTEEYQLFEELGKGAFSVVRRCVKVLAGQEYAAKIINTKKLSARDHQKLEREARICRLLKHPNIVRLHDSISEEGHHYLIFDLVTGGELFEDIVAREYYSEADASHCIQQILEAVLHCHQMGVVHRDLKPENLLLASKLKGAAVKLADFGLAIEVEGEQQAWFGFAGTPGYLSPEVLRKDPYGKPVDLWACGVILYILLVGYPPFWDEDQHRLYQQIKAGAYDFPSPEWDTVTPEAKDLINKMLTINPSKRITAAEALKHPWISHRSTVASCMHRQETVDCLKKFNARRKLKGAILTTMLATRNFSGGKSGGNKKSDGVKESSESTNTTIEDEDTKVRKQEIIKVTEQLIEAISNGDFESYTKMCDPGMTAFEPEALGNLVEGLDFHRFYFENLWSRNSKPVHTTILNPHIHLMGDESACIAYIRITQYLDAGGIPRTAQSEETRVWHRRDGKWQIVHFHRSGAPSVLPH
Sequence of ALK tyrosine kinase receptor (Homo sapiens) (Q9UM73 19-1620 limits assumed): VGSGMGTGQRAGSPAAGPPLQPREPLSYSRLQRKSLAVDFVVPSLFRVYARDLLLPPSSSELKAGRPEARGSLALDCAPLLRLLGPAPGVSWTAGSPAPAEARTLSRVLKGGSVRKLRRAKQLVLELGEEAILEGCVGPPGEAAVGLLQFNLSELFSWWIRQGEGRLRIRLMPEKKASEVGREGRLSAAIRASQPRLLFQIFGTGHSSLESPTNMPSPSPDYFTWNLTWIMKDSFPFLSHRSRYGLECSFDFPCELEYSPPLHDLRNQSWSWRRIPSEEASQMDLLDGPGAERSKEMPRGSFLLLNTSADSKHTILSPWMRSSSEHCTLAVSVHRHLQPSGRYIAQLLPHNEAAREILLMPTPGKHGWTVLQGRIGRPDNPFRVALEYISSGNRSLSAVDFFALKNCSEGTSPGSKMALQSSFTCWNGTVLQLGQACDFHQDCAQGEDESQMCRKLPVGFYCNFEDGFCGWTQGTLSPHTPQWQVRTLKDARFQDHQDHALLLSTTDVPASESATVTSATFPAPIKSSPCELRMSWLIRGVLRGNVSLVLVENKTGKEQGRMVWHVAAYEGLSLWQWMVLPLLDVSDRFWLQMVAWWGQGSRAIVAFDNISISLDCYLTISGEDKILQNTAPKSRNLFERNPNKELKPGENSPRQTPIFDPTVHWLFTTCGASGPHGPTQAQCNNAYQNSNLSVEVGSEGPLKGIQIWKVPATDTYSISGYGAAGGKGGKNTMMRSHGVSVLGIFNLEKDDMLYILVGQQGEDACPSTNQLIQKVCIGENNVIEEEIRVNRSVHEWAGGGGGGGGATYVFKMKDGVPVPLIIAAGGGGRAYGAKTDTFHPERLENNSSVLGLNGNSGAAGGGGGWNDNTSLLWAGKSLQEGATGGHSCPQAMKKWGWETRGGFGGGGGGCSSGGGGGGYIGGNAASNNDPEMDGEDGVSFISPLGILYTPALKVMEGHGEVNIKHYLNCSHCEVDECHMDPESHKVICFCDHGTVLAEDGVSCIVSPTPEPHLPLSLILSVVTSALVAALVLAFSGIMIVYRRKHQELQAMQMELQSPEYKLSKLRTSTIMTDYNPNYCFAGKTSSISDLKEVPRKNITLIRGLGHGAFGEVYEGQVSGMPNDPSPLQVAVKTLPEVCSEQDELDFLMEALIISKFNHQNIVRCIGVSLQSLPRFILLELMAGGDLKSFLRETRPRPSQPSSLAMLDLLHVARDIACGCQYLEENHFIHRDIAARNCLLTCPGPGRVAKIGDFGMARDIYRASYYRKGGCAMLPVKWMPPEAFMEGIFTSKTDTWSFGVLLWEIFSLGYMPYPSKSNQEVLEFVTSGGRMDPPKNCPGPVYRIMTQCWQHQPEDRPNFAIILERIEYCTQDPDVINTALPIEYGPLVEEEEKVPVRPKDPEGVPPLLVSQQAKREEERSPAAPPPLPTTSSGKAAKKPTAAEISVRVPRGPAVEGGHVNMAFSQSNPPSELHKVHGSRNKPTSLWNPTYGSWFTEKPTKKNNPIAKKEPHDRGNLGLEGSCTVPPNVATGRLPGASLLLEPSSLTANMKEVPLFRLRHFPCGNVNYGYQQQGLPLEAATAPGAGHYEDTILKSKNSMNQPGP
Sequence of Serine/threonine-protein kinase 16 (Homo sapiens) (O75716 whole entry): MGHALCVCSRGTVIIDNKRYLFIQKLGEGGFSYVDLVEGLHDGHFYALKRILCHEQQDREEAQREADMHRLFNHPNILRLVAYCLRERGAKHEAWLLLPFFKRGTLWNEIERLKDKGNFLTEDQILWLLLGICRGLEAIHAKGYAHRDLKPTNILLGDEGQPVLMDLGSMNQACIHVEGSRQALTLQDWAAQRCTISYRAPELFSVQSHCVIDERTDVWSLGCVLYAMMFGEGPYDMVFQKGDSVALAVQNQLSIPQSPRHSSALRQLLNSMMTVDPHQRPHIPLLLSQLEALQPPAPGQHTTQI

`COc1cc2c(Oc3ccc(-c4nc5ccccc5s4)cc3F)ncnc2cc1OCCCN1CCN(C)CC1`: the residual activity turned out to be 55% in test [1]; 103% in [2]; 90% in test [3]; 105% in test [4]; 101% in [5]; 90% in test [6]. The residual activity in test [7] is 96%; in test [8], 93%; in test [9], 81%; in test [10] it was 114%; in test [11], 230%; in test [12], 83%. For the same molecule, in [13], the residual activity turned out to be 102%.

Turning to `COc1cc2c(Oc3ccc(-c4nc5ccccc5s4)cc3)ncnc2cc1OCCCN1CCN(C)CC1`, the residual activity in [1] was found to be 71%; in test [2] it was 102%; in test [3] it was 88%; in test [4], 101%; in test [5], 96%; in [6], 91%. The residual activity in test [7] stood at 103%; in test [8], 88%; in test [9] it was 57%; in [10], 106%; in [11], 341%; in [12], 69%. The residual activity in test [13] is 100%.

`COc1cc2c(Oc3ccc(-c4nc5ccccc5s4)cc3)ncnc2cc1OCCCN1CCCC1`: the residual activity in [1] stood at 81%; in test [2], 98%; in [3], 85%; in test [4] it was 85%; in [5], 94%; in [6], 85%. The residual activity is 95% in test [7]; 92% in test [8]; 58% in [9]; 102% in [10]; 166% in test [11]; 81% in [12]. The residual activity in test [13] stood at 93%.
